For orientation: pKd means the Kd on a negative log10 scale, so that one unit is a factor of ten. The low end stands for a high Kd, the high end for a low Kd. The term pIC50 denotes the negative decadic logarithm of the IC50, by convention in mol/L.

Positions count from the first letter of the chain named. pIC50, pKd: −log10 of the molar value.

Drawing on publication PMC9584815, “The aldolase inhibitor aldometanib mimics glucose starvation to activate lysosomal AMPK” (Nature Metabolism, 2022), this text covers Kd and IC50 for one compound.

The target in one assay is T1, rabbit aldolase (ALDOA) (Oryctolagus cuniculus, UniProt P00883).
T1 construct: rabbit aldolase (ammonium sulfate precipitated; A8811)
T1 sequence (P00883 2-364): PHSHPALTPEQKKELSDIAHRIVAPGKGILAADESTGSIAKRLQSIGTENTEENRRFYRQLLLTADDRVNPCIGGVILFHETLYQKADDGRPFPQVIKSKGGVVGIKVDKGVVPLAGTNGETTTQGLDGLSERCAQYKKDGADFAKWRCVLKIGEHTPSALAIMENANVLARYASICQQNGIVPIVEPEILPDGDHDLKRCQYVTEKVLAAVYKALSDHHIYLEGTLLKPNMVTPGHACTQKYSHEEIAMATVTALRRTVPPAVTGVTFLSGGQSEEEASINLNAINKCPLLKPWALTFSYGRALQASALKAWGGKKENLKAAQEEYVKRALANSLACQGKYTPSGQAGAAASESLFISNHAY
The assay is described as follows: SPR (CM5 chip, Biacore 8K); also MS adduct on Lys230 and enzymatic inhibition (IC50 about […]). The format is binding. A general note: In SPR one partner is held on a chip, and binding of the other changes the refractive index at the surface.

The target in another assay is T2, ALDOA (Homo sapiens, UniProt P04075).
T2 construct: full-length, His-tagged, bacterially expressed and purified
T2 sequence (P04075 2-364): T1 sequence (P00883 2-364) with H2Y, S3Q, H4Y, Y243F, V267I, I358V
Kind of assay: aldolase/TPI/GPDH-coupled NADH assay. The format is biochemical.

For the compound `CCCCCCCCCCCCCCCCn1cc[n+](Cc2c(Cl)cccc2Cl)c1C` [LXY-05-029, aldometanib], on rabbit aldolase (ALDOA), the pKd was about 4.70. This compound gave a pIC50 against ALDOA of about 4.30.
